Read-outs that look alike come from different tables or passages of the source.
Legend:
[1] = LD50 (mean lethal dose) on the mouse (Table II); details: in vivo
Description: (§1) on the despinalised rat. The mean lethal doses for the mouse are also

[2] = tested on: defence reaction after the thermal stimulation of the tail of the mouse; test: Analgesic effect on the mouse: delay in defence reaction after thermal stimulation of the tail (Table IV); format: in vivo; details: po, read-out: Delay in the defence reaction after the thermal stimulation of the tail of the mouse by 25% by mg/kg per os
Description: From Table IV below one can see the analgesic action, measured in terms of the delayed reaction during the thermal irritation of the mouse tail. The analgesically effective doses are also below those which reduce the motor behaviour, that is to say the normal movement processes (cf. Table III).
Analgesic effect on the mouse
Delay in the defence reaction after
the thermal stimulation of the tail

[3] = tested on: hypertensive effect of noradrenalin; test: 50% inhibition of hypertensive effect of 0.001 mg/kg i/v noradrenalin on the despinalised rat (Table II); format: in vivo; details: iv, read-out: 50% inhibition of hypertensive effect after i/v dose of Noradrenalin by mg/kg i/v
Experimental: (§2) also on the hypertensive effect of 0.001 mg/kg i/v 1-adrenalin and
(§3) blood pressure and the cardiac frequency of the narcosed rate and also on
(§4) the hypertensive effect of 0.001 mg/kg i.v. 1-adrenaline and noradrenaline
as §1

[4] = tested on: hypertensive effect of 1-adrenalin; test: 50% inhibition of hypertensive effect of 0.001 mg/kg i/v 1-adrenalin on the despinalised rat (Table II); format: in vivo; details: iv, read-out: 50% inhibition of hypertensive effect after i/v dose of Adrenalin by mg/kg i/v
Experimental: as §2, §3, §4, §1

[5] = tested on: blood pressure and cardiac frequency of the narcotised rat; test: Influence on the blood pressure and the cardiac frequency of the narcotised rat (Table II); format: in vivo; details: iv, i/v, read-out: Blood pressure lowered by 30% by mg/kg i/v
Description: Influence on the blood pressure and the cardiac frequency of the
blood pressure and the cardiac frequency of the narcosed rate and also on […]

mouse [6] = test: Mice falling from a rotating bar (Table III, a); format: in vivo; details: ip, read-out: a PD50 mg/kg i.p.
Description: The central damping actions of the piperazinyl quinazolones on the mouse can be seen from Table III.
a = dose at which 50% of the mice fall from a rotating bar;

carotid sinus reflex = test: Inhibition of the carotid sinus reflex of the narcotised cat (Table I); format: in vivo; parameters: unit not given here; details: for Inhibition of the carotid sinus reflex by 30% by: dose for 30% inhibition; for Inhibition of the carotid sinus reflex by 50% by: dose for 50% inhibition
Description: (§5) Influence on the blood pressure and cardiac frequency and also
(§6) on the carotid sinus reflex of the narcotised cat
(§7) Table I provides a general summary of the influence of different piperazinylquinazolones on the blood pressure, the cardiac frequency and the carotid sinus reflex of the narcotised cat.
The inhibition of the carotid sinus reflex brought about by the piperazinyl quinazolones occurs at lower doses than the spontaneous lowering of the blood pressure in the cat.

[7] = tested on: running activity of mice pre-treated with α-amphetamine sulphate; test: Inhibition of running activity of mice pre-treated with α-amphetamine sulphate (Table III, c); format: in vivo; details: Mus musculus, ip, 3 h, 5 mg/kg α-amphetamine sulphate, 180 minutes; for inhibition in vivo at 12 mg/kg: 12mg/kg i/p, read-out: c % inhibition of motility in the treadwheel by 12mg/kg i/p; for inhibition in vivo at 25 mg/kg: 25mg/kg i/p, read-out: c % inhibition of motility in the treadwheel by 25mg/kg i/p
mouse [8] = test: Inhibition of spontaneous motility, sedation, muscular relaxation, loss of grip on horizontal wire mesh in mice (Table III, b); format: in vivo; details: po, dose at which an average of 50% of the mice display symptoms, read-out: b SD50 mg/kg oral
[9] = tested on: duration of sleep of mice under hexobarbital; test: Prolongation of hexobarbital sleep in mice (Table III, d); format: in vivo; details: Mus musculus, ip; 15 mg/kg i.p.; 75 mg/kg hexobarbital; read-out: d % prolongation of sleep under hexebarbital by 15 mg/kg i.p.
Experimental: d = percentage prolongation of the duration of sleep of mice which had received 75 mg/kg. of hexobarbital, reckoned on the duration of the sleep of control animals.

[10] = tested on: blood pressure and cardiac frequency of the narcotised cat; test: Influence on the blood pressure and cardiac frequency of the narcotised cat (Table I); format: in vivo; parameters: unit not given here; details: for Blood pressure lowered by 30% by: dose lowering blood pressure by 30%; for Blood pressure lowered by 50% by: dose lowering blood pressure by 50%
Description: as §5, §6, §7

[11] = dose at which 50% of the mice fall from a rotating bar

Compound | LD50 [1] [mg/kg] | ED25 ([2]; mouse, per os, 25% delay) [mg/kg] | ED50 [3] [mg/kg] | ED50 [4] [mg/kg] | ED30 [5] [mg/kg] | ED50 (mouse [6]) [mg/kg] | Inhibition of the carotid sinus reflex by 30% by (carotid sinus reflex) | Inhibition of the carotid sinus reflex by 50% by (carotid sinus reflex) | inhibition in vivo at 12 mg/kg [7] [%] | inhibition in vivo at 25 mg/kg [7] [%] | ED50 (mouse [8]) [mg/kg] | change in vivo at 15 mg/kg [9] [%] | Blood pressure lowered by 30% by [10] | Blood pressure lowered by 50% by [10] | ED50 (mouse [6]; [11]) [mg/kg] | ED25 ([2]; Mus musculus) [mg/kg]
COc1cc2nc(CCN3CCN(c4cccc(F)c4)CC3)[nH]c(=O)c2cc1OC [Example 15, 2-(2-(1-(3-fluorophenyl)piperazinyl-4)ethyl)-6,7-dimethoxy-4(3H)-quinazolone] | 200 | 1 | 4.3 | 0.32 | 0.2 |  |  |  |  |  |  |  |  |  |  | 
COc1cc2nc(CCN3CCN(c4ccccc4Cl)CC3)[nH]c(=O)c2cc1OC [Example 11, 2-(2-(1-(2-chlorophenyl)piperazinyl-4)ethyl)-6,7-dimethoxy-4(2H)-quinazolone] | 200 | 4 | > 2.5 | 0.048 | 0.1 | 53 | 0.017 | 0.04 | 18 | 32 | 110 | 87 | 0.04 | > 1.6 |  | 
COc1cc2nc(CCN3CCN(c4ccc(C)cc4)CC3)[nH]c(=O)c2cc1OC [Example 4] | 100 | 3 |  |  | 0.65 | 23 |  |  | 51 | 65 | 70 | 125 |  |  |  | 
COc1cc2nc(CN3CCN(c4ccccc4OC)CC3)[nH]c(=O)c2cc1OC [Example 18, 2-(1-(2-methoxyphenyl)piperazinyl-4)methyl-6,7-dimethoxy-4(3H)-quinazolone] |  | 8 |  |  |  |  |  |  |  | 12 | 1000 | > 15 |  |  |  | 
COc1cc2nc(CCN3CCN(c4ccccc4C)CC3)[nH]c(=O)c2cc1OC [Example 2, 2-(2-(1-(2-tolyl)-piperazinyl-4)ethyl)-6,7-dimethoxy-4(3H)-quinazolone] | 70 | 1 | 1.4 | 0.042 | 0.65 | 35 | < 0.01 | 0.02 | 11 | 10 | 140 | 121 | 0.029 | > 1.6 |  | 
CCCC(C)(COC(N)=O)COC(N)=O [Meprobamate, reference compound] |  |  |  |  |  | 95 |  |  | 11 | 28 | 300 | 18 |  |  |  | 
COc1ccc(N2CCN(CCc3nc4cc(OC)c(OC)cc4c(=O)[nH]3)CC2)cc1 [Example 17, 2-(2-(1-(4-methoxyphenyl)piperazinyl-4)ethyl)-6,7-dimethoxy-4(3H)-quinazolone] |  | 2 |  |  |  |  |  |  |  |  |  |  | 4.5 | > 1.5 |  | 
COc1cc2nc(CCN3CCN(c4ccc(F)cc4)CC3)[nH]c(=O)c2cc1OC [Example 16, 2-(2-(1(4-fluorophenyl)piperazinyl-4)ethyl)-6,7-dimethoxy-4(3H)-quinazolone] | 300 | 2.5 | 4 | 0.57 | 0.6 | 14 |  |  | 10 | 49 | 65 | 103 |  |  |  | 
CCOc1ccccc1N1CCN(CCc2nc3cc(OC)c(OC)cc3c(=O)[nH]2)CC1 [Example 10, 2-(2-(1-(2-ethoxyphenyl)piperazinyl-4)ethyl)-6,7-dimethoxy-4(3H)-quinazolone] | 300 | 2 | 1.8 | 0.0085 | 0.4 |  | < 0.02 | 0.03 |  |  |  |  | 0.03 | 1.4 |  | 
COc1cc2nc(CCCN3CCN(c4ccccc4OC)CC3)[nH]c(=O)c2cc1OC [Example 20, 2-(3-(1-(2-methoxy-phenyl)-piperazinyl-4)-n-propyl)-6,7-dimethoxy-4(3H)-quinazolone] | 300 | 2 | 1.15 | 0.05 | 0.65 |  |  |  |  |  |  |  |  |  |  | 
Cc1ccc(N(CC2=NCCN2)c2cccc(O)c2)cc1 [Phentolamine, phentolamine, reference compound] | 200 |  | 0.18 | 0.047 | 0.63 |  | 0.1 | 0.5 |  |  |  |  | 0.1 | 0.7 |  | 
CNC1=Nc2ccc(Cl)cc2C(c2ccccc2)=[N+]([O-])C1 [Chlordiazepoxide, chlorodiazepoxide, reference compound] |  |  |  |  |  | 38 |  |  | 15 | 19 | 8 | 324 |  |  |  | 
COc1cc2nc(CCN3CCN(c4ccc(Cl)cc4)CC3)[nH]c(=O)c2cc1OC [Example 13, 2-(2-(1-(4-chlorophenyl)piperazinyl-4)ethyl)-6,7-dimethoxy-4(3H)-quinazolone] |  | 2 |  |  |  |  |  |  | 15 | 15 | 200 | 44 |  |  | 46 | 
COc1cc2nc(CCN3CCN(c4cccc(Cl)c4)CC3)[nH]c(=O)c2cc1OC [Example 12, 2-(2-(1-(3-chlorophenyl)piperazinyl-4)ethyl)-6,7-dimethoxy-4(3H)-quinazolone] |  | 1.5 |  |  |  |  |  |  | 0 | 19 | 500 | 78 |  |  | 34 | 
COc1cc2nc(CCN3CCN(c4cccc(C)c4)CC3)[nH]c(=O)c2cc1OC [Example 3, 2-(2-(1-(3-tolyl)piperazinyl-4)ethyl)-6,7-dimethoxy-4(3H)-quinazolone] | 200 | 2 | 5 | 0.35 | 0.32 | 24 |  |  | 13 | 41 | 60 | 69 |  |  |  | 
Cc1c(N(C)C)c(=O)n(-c2ccccc2)n1C [Aminophenazone, 4-dimethylamino-1-phenyl-2,3-dimethylpyrazolone-5, reference compound] |  | 80 |  |  |  |  |  |  |  |  |  |  |  |  |  | 
COc1cc2nc(CCN3CCN(c4ccccc4)CC3)[nH]c(=O)c2cc1OC [Example 1, 2-(2-(1-phenylpiperazinyl-4)ethyl)-6,7-dimethoxy-4(3H)-quinazolone] | 70 | 1.5 | 5 | 0.23 | 0.3 | 33 |  |  | 15 | 55 | 1000 | 64 |  |  |  | 
COc1cc2nc(CCN3CCN(c4cccc(C(F)(F)F)c4)CC3)[nH]c(=O)c2cc1OC [Example 5, 2-(2-(1-(3-trifluoromethylphenyl)piperazinyl-4)ethyl)-6,7-dimethoxy-4(3H)-quinazolone] |  | < 1 |  |  |  |  |  |  |  |  |  |  |  |  |  | 
COc1cc2nc(CCN3CCN(c4ccccc4OC)CC3)n(C)c(=O)c2cc1OC [Example 8] | 350 |  |  | 0.035 | 0.12 |  |  |  |  |  |  |  |  |  |  | 
CN1CC[C@]23c4c5ccc(O)c4O[C@H]2[C@@H](O)C=C[C@H]3[C@H]1C5.Cl [Morphine hydrochloride, morphine hydrochloride, reference compound] |  |  |  |  |  |  |  |  |  |  |  |  |  |  |  | 2

— US3984555A, “Therapeutic piperazinylalkyl-quinazolone-(4)-derivatives” (Byk Gulden Lomberg Chemische Fabrik Gesellschaft mit …, priority 1970, dated 1976)
